Experiments:
Large Crabgrass = assay: Test 5 sugarcane injury and weed control, postemergence; type: in vivo, Digitaria sanguinalis; conditions: scale 0-100
Procedure: Sugarcane (Saccharum spp.) cuttings which had been pre-sprouted were planted in 15-cm plastic pots. Narrowleaf panicum (Panicum maximum), large crabgrass (Digitaria sanguinalis), guineagrass (P. maximum) and itchgrass (Rottboellia exaltata) were seeded in individual 15-cm plastic pots.
The pots were treated postemergence when the plants had 3 to 4 leaves with 2 to 3 tillers with Compound I formulated in a non-phytotoxic carrier made up of acetone-humectant-water-surfactant (22:1:1:0.05 v/v). The degree of crop injury and weed control was visually rated 27 days after treatment (DAT). Plant injury ratings are based on the scale of 0 to 100 where 0 = no effect, 20 = minimal injury and 100 = complete control.

weed = assay: Test 6 effect of surfactants, postemergence; type: in vivo; conditions: addition of a surfactant
From the text: The object of this test was to evaluate the effect of surfactants and plant growth stage on the efficacy of the compound of this invention. Plastic windowsill pots were filled with planting medium and seeded with yellow nutsedge (Cyperus esculentus), large crabgrass (Digitaria sanguinalis), goosegrass (Elsusine indica), bermudagrass (Cynodon dactylon), broadleaf signalgrass (Brachiara platyphalla), smooth crabgrass (Digitaria ischaemum), guinea grass (Panicum maximum) and johnsongrass (Sorghum halapense). Coffee (Coffea spp) plants with 2 to 4 branches were included in one test.
Plants were treated postemergence with Compound I formulated with different surfactants or a non-phytotoxic carrier made up of acetone-humectant-water-surfactant.

Wild mustard = assay: Test 7 postemergence; type: in vivo; conditions: scale 0-100
Ball mustard = assay: Test 7 postemergence; type: in vivo, Neslia paniculata; conditions: scale 0-100
Procedure: (§1) Individual 11.4-cm plastic pots filled with planting medium were seeded with rape, wild radish (Raphanus raphanistruna). tansy mustard (Descurainia pinnata), ball mustard (Neslia paniculata), black mustard (Brassica nigra), yellow mustard, brown mustard, lentils, safflower, flax, sunflower, peanut, vetch, alfalfa, field bean, pea, violet (Viola spp), Kochia (Kochia spp), Russian thistle (Salsola spp), Matricaria spp, groundsel (Senecio spp), shepherdspurse (Capsella bursa-pastoris), nightshade (Solanum spp), sowthistle (Sonchus spp), sugar beet, wheat, "Bonanza" barley and "Morex" barley, Kentucky bluegrass (Poa pratensis), red clover (Trifolium pratense), dandelion (Taraxacum spp) and buckhorn plantain (Plantago lanceolata).
(§2) Plants were treated postemergence with the compound formulated with a non-phytotoxic carrier. Plants were visually rated 18 days after treatment (DAT). Response ratings were based on the scale of 0 to 100 where 0 = no effect, 20 = minimal injury and 100 = complete control.

Alfalfa = assay: Test 7 postemergence; type: in vivo; conditions: scale 0-100
Procedure: as §1, §2

Bonanza barley = assay: Test 7 postemergence; type: in vivo; conditions: scale 0-100
Procedure: as §1, §2

Brown mustard = assay: Test 7 postemergence; type: in vivo; conditions: scale 0-100
Procedure: as §1, §2

Field bean = assay: Test 7 postemergence; type: in vivo; conditions: scale 0-100
Procedure: as §1, §2

Flax = assay: Test 7 postemergence; type: in vivo; conditions: scale 0-100
Procedure: as §1, §2

Lentils = assay: Test 7 postemergence; type: in vivo; conditions: scale 0-100
Procedure: as §1, §2

Morex barley = assay: Test 7 postemergence; type: in vivo; conditions: scale 0-100
Procedure: as §1, §2

Onicutal mustard = assay: Test 7 postemergence; type: in vivo; conditions: scale 0-100
Procedure: as §1, §2

Peanut = assay: Test 7 postemergence; type: in vivo; conditions: scale 0-100
Procedure: as §1, §2

Pea = assay: Test 7 postemergence; type: in vivo; conditions: scale 0-100
Procedure: as §1, §2

Safflower = assay: Test 7 postemergence; type: in vivo; conditions: scale 0-100
Procedure: as §1, §2

Sugar beet = assay: Test 7 postemergence; type: in vivo; conditions: scale 0-100
Procedure: as §1, §2

Sunflower = assay: Test 7 postemergence; type: in vivo; conditions: scale 0-100
Procedure: as §1, §2

Vetch = assay: Test 7 postemergence; type: in vivo; conditions: scale 0-100
Procedure: as §1, §2

Wheat = assay: Test 7 postemergence; type: in vivo; conditions: scale 0-100
Procedure: as §1, §2

Yellow mustard = assay: Test 7 postemergence; type: in vivo; conditions: scale 0-100
Procedure: as §1, §2

Viola = assay: Test 7 postemergence; type: in vivo, Viola spp; conditions: scale 0-100
Procedure: as §1, §2

Groundsel = assay: Test 7 postemergence; type: in vivo, Senecio spp; conditions: scale 0-100
Procedure: as §1, §2

Sowthistle = assay: Test 9 postemergence; type: in vivo, Sonchus spp; conditions: scale 0-100
Procedure: (§3) Plastic windowsill pots containing planting medium were seeded with bahiagrass, bindweed (Convolvulus spp), guinea grass (Panicum maximum), large crabgrass (Digitaria sanguinalis) and pigweed (Amaranthus spp). Individual 15-cm plastic pots contained sandbur (Cenchrus echinatus), Mikania cordata, Boston fern (Nephrolepis exalata), quackgrass (Agropyron repens), elephantgrass (Pennisetum purpureum) and sowthistle (Sonchus spp) plants.
(§4) Plants were treated postemergence with Compound I formulated in a non-phytotoxic solvent. Plants were visually rated 22 days after treatment (DAT). Injury and weed control ratings were based on the scale of 0 to 100 where 0 = no effect, 20 = minimal control and 100 = complete control.

Coffee = assay: Test 9 postemergence; type: in vivo; conditions: scale 0-100
Procedure: as §3, §4

Compound: COC(=O)c1cccnc1S(=O)(=O)NC(=O)Nc1nc(OC)cc(OC)n1 [Compound I, 2-[[(4,6-dimethoxypyrimidin-2-yl)aminocarbonyl]aminosulfonyl]-3-pyridinecarboxylic acid, methyl ester]
- Plant Injury Rating 27 DAT (Large Crabgrass; 8 g/ha): 30
- Plant Injury Rating 27 DAT (Large Crabgrass; 16 g/ha): 60
- Plant Injury Rating 27 DAT (Large Crabgrass; 32 g/ha): 80
- Plant Injury Rating 27 DAT (Large Crabgrass; 64 g/ha): 100
- weed control (weed): could improve the weed control
- Plant Injury Rating 18 DAT (Wild mustard; 16 g/ha): 100
- Plant Injury Rating 18 DAT (Wild mustard; 32 g/ha): 100
- Plant Injury Rating 18 DAT (Ball mustard; 16 g/ha): 100
- Plant Injury Rating 18 DAT (Ball mustard; 32 g/ha): 100
- Plant Injury Rating 18 DAT (Alfalfa; 16 g/ha): 100
- Plant Injury Rating 18 DAT (Alfalfa; 32 g/ha): 100
- Plant Injury Rating 18 DAT (Bonanza barley; 16 g/ha): 90
- Plant Injury Rating 18 DAT (Bonanza barley; 32 g/ha): 100
- Plant Injury Rating 18 DAT (Brown mustard; 16 g/ha): 100
- Plant Injury Rating 18 DAT (Brown mustard; 32 g/ha): 100
- Plant Injury Rating 18 DAT (Field bean; 16 g/ha): 100
- Plant Injury Rating 18 DAT (Field bean; 32 g/ha): 100
- Plant Injury Rating 18 DAT (Flax; 16 g/ha): 100
- Plant Injury Rating 18 DAT (Flax; 32 g/ha): 100
- Plant Injury Rating 18 DAT (Lentils; 16 g/ha): 100
- Plant Injury Rating 18 DAT (Lentils; 32 g/ha): 100
- Plant Injury Rating 18 DAT (Morex barley; 16 g/ha): 90
- Plant Injury Rating 18 DAT (Morex barley; 32 g/ha): 100
- Plant Injury Rating 18 DAT (Onicutal mustard; 16 g/ha): 100
- Plant Injury Rating 18 DAT (Onicutal mustard; 32 g/ha): 100
- Plant Injury Rating 18 DAT (Peanut; 16 g/ha): 100
- Plant Injury Rating 18 DAT (Peanut; 32 g/ha): 100
- Plant Injury Rating 18 DAT (Pea; 16 g/ha): 100
- Plant Injury Rating 18 DAT (Pea; 32 g/ha): 100
- Plant Injury Rating 18 DAT (Safflower; 16 g/ha): 100
- Plant Injury Rating 18 DAT (Safflower; 32 g/ha): 100
- Plant Injury Rating 18 DAT (Sugar beet; 16 g/ha): 100
- Plant Injury Rating 18 DAT (Sugar beet; 32 g/ha): 100
- Plant Injury Rating 18 DAT (Sunflower; 16 g/ha): 100
- Plant Injury Rating 18 DAT (Sunflower; 32 g/ha): 100
- Plant Injury Rating 18 DAT (Vetch; 16 g/ha): 100
- Plant Injury Rating 18 DAT (Vetch; 32 g/ha): 100
- Plant Injury Rating 18 DAT (Wheat; 16 g/ha): 100
- Plant Injury Rating 18 DAT (Wheat; 32 g/ha): 100
- Plant Injury Rating 18 DAT (Yellow mustard; 16 g/ha): 100
- Plant Injury Rating 18 DAT (Yellow mustard; 32 g/ha): 100
- Plant Injury Rating 18 DAT (Viola; 16 g/ha): 100
- Plant Injury Rating 18 DAT (Viola; 32 g/ha): 100
- Plant Injury Rating 18 DAT (Groundsel; 16 g/ha): 100
- Plant Injury Rating 18 DAT (Groundsel; 32 g/ha): 100
- Plant Injury Rating 22 DAT (Sowthistle; 8 g/ha): 60
- Plant Injury Rating 22 DAT (Sowthistle; 16 g/ha): 70
- Plant Injury Rating 22 DAT (Sowthistle; 32 g/ha): 100
- Plant Injury Rating 22 DAT (Coffee; 8 g/ha): 0
- Plant Injury Rating 22 DAT (Coffee; 16 g/ha): 0
- Plant Injury Rating 22 DAT (Coffee; 32 g/ha): 0

— patent EP0314302A2, “Herbicidal o-carbomethoxy-sulfonylureas” (E.I. DU PONT DE NEMOURS AND COMPANY, priority 1987, dated 1989)
